Test results published in ChEMBL document CHEMBL1134503, “Synthesis, antifolate, and antitumor activities of classical and nonclassical 2-amino-4-oxo-5-substituted-pyrrolo[2,3-d]pyrimidines” (J Med Chem, 2001).

How the values were obtained:
[1] = target: T1, Dihydrofolate reductase (Rattus norvegicus, UniProt Q920D2); test: Inhibition of rat liver dihydrofolate reductase
T1 sequence (Q920D2 whole entry): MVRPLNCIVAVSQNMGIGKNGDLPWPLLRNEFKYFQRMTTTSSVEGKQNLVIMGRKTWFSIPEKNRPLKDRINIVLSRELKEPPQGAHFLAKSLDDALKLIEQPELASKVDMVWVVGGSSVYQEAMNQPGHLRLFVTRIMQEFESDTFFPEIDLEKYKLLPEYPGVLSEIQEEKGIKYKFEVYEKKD

[2] = target: T2, Dihydrofolate reductase (Pneumocystis carinii, UniProt P16184); test: Inhibitory activity against Pneumocystis carinii dihydrofolate reductase
T2 sequence (P16184 whole entry): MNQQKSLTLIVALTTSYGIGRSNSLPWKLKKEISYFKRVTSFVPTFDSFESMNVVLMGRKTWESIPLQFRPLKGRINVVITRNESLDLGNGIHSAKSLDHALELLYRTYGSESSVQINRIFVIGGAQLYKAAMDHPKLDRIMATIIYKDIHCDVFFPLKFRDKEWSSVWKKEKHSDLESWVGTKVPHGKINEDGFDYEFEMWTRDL

[3] = target: T3, Bifunctional dihydrofolate reductase-thymidylate synthase (Toxoplasma gondii, UniProt Q07422); test: Inhibitory activity against Toxoplasma gondii dihydrofolate reductase
T3 sequence (Q07422 whole entry): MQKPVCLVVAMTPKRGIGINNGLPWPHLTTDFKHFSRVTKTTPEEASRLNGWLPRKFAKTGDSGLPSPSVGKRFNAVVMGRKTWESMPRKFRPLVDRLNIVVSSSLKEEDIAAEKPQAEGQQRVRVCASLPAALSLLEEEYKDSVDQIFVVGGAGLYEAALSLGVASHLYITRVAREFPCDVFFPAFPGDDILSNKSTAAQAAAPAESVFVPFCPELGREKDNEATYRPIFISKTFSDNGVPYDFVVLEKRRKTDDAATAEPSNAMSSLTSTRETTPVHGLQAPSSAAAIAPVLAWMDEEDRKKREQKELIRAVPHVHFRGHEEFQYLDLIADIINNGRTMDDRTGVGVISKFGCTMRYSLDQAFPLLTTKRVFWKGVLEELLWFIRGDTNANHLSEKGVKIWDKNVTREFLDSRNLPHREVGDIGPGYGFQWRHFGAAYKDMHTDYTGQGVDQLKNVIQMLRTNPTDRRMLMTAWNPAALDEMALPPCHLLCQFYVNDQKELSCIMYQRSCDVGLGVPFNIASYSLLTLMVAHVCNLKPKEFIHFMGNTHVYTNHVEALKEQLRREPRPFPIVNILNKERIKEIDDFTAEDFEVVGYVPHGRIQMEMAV

[4] = target: Dihydrofolate reductase; T. gondii vs rat (Toxoplasma gondii) (UniProt Q920D2+Q07422); test: Ratio of binding to rat liver and Toxoplasma gondii dihydrofolate reductase
[5] = test system: FaDu; test: Relative growth inhibition of FaDu cells at 9 uM drug concentration and in presence of 50 uM Hypoxanthine.; type: functional, Homo sapiens
[6] = test system: CCRF-CEM; test: Growth inhibition of CCRF-CEM cells resistant to MTX; type: functional, cell-based; settings: Homo sapiens
[7] = test system: CCRF-CEM; test: Growth inhibition of […], defined mechanisms of MTX resistance during continuous (0-120 h) exposure; type: functional, cell-based; settings: Homo sapiens
[8] = test system: CCRF-CEM; test: Growth inhibition of parental CCRF-CEM cells.; type: functional, cell-based; settings: Homo sapiens
[9] = target: Thymidylate synthase (Escherichia coli, UniProt C3SWJ7); test: Inhibitory activity against Escherichia coli thymidylate synthase
Thymidylate synthase (Escherichia coli, UniProt C3SWJ7), sequence (C3SWJ7 whole entry): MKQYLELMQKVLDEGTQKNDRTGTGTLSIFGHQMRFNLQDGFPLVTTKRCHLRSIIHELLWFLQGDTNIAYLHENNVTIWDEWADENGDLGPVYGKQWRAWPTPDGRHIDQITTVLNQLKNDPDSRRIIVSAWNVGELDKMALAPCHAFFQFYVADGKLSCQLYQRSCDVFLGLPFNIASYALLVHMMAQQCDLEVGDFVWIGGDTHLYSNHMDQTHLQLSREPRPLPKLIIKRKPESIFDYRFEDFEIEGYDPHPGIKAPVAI

[10] = test system: FaDu; test: Growth inhibition of FaDu human head and neck squamous cell carcinoma cell lines.; type: functional, cell-based
[11] = test system: FaDu; test: Relative growth inhibition of FaDu cells at 9 uM drug concentration and in presence of 10 uM Leucovorin.; type: functional, Homo sapiens
[12] = test system: FaDu; test: Relative growth inhibition of FaDu cells in absence of metabolite at 9 uM concentration.; type: functional, Homo sapiens
[13] = test system: FaDu; test: Relative growth inhibition of FaDu cells at 9 uM drug concentration and in presence of 40 uM Thymidine.; type: functional, Homo sapiens
[14] = target: Thymidylate synthase (Homo sapiens, UniProt P04818); test: Inhibitory activity against human thymidylate synthase
Thymidylate synthase (Homo sapiens, UniProt P04818), sequence (P04818 whole entry): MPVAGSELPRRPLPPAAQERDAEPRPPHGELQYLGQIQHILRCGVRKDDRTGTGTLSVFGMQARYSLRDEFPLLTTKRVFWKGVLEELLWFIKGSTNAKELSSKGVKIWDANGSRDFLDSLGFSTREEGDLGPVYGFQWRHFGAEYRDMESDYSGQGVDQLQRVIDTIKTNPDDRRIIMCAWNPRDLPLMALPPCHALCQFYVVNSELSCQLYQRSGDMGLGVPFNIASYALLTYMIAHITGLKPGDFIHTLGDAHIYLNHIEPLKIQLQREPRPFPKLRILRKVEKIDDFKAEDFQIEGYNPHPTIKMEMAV

[15] = test system: FaDu; test: Relative growth inhibition of FaDu cells at 9 uM drug concentration and in presence of thymidine and hypoxanthine.; type: functional, Homo sapiens
[16] = test system: CCRF-CEM; test: Growth inhibition of DHFR-overexpressing cells, defined mechanisms of MTX resistance during continuous (0-120 h) exposure; type: functional, cell-based; settings: Homo sapiens
[17] = test system: A253 cell line; test: Growth inhibition of A253 cell lines.; type: functional, cell-based; settings: Homo sapiens
[18] = target: T4, Dihydrofolate reductase (Homo sapiens, UniProt P00374)
T4 sequence (P00374 whole entry): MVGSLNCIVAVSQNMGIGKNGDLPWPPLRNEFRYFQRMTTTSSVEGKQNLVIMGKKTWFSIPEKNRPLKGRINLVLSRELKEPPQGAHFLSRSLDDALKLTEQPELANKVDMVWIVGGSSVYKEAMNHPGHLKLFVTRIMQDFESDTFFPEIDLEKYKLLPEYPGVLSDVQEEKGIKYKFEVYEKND
Description: Inhibitory activity against human dihydrofolate reductase

| SMILES | IC50 [1] [µM] | IC50 [2] [µM] | IC50 [3] [µM] | Ratio [4] | other results |
| --- | --- | --- | --- | --- | --- |
| Nc1nc2[nH]cc(CNc3ccc(Cl)cc3Cl)c2c(=O)[nH]1 | 15 | > 15 |  |  |  |
| COc1cc(N(C)Cc2c[nH]c3nc(N)[nH]c(=O)c23)cc(OC)c1OC | 45 | > 45 | 37 |  |  |
| COc1ccc(OC)c(N(C)Cc2c[nH]c3nc(N)nc(O)c23)c1 |  |  |  | > 6 |  |
| COc1cc(OC)cc(N(C)Cc2c[nH]c3nc(N)nc(O)c23)c1 | 87 | > 87 | 4.2 | > 21 |  |
| Nc1nc(O)c2c(CNc3ccc(C(=O)N[C@@H](CCC(=O)O)C(=O)O)cc3)c[nH]c2n1 |  |  | 0.8 |  | Relative growth [5]: 5; EC50 [6]: 0.12 µM; EC50 [7]: 0.31 µM; EC50 [8]: 0.08 µM; IC50 [9]: > 120 µM; EC50 [10]: 0.8 µM; Relative growth [11]: 64; Relative growth [12]: 5; Relative growth [13]: 74; IC50 [14]: 46 µM; Relative growth [15]: 79; EC50 [16]: 0.2 µM; EC50 [17]: 1 µM; IC50 [18]: 10 µM |
| Nc1nc(O)c2c(CNc3cc(Cl)ccc3Cl)c[nH]c2n1 | 25 | > 25 | 0.66 | > 38 |  |
| COc1ccc(NCc2c[nH]c3nc(N)nc(O)c23)c(OC)c1 | 16 | > 16 |  | > 2.3 |  |
| COc1cc(N(C)Cc2c[nH]c3nc(N)nc(O)c23)cc(OC)c1OC |  |  |  | > 2 |  |
| Nc1nc2[nH]cc(CNc3cc(Cl)cc(Cl)c3)c2c(=O)[nH]1 | 63 |  | 4.1 |  |  |
| Nc1nc(O)c2c(CNc3cccc(Cl)c3)c[nH]c2n1 |  |  |  | > 7 |  |
| Nc1nc(O)c2c(CNc3cc(Cl)cc(Cl)c3)c[nH]c2n1 |  |  |  | > 15.4 |  |
| CN(Cc1cnc2nc(N)nc(N)c2n1)c1ccc(C(=O)N[C@@H](CCC(=O)O)C(=O)O)cc1 [METHOTREXATE] |  |  |  |  | EC50 [17]: 0.019 µM |
| Nc1nc(O)c2c(CNc3ccc(Cl)cc3Cl)c[nH]c2n1 |  |  |  | > 7 |  |
| Nc1nc2[nH]cc(CNc3cccc(Cl)c3)c2c(=O)[nH]1 | 26 | > 26 |  |  |  |
| COc1ccc(OC)c(NCc2c[nH]c3nc(N)nc(O)c23)c1 | 47 | > 47 |  | > 21 | EC50 [6]: 0.46 µM; EC50 [7]: 1.53 µM; EC50 [8]: 0.23 µM; EC50 [10]: > 10 µM; EC50 [16]: 0.42 µM; EC50 [17]: > 10 µM |
| COc1cc(NCc2c[nH]c3nc(N)nc(O)c23)cc(OC)c1OC | 22 | > 22 | 9.3 | > 2.4 |  |
| Nc1nc2[nH]cc(CCc3ccc(C(=O)N[C@@H](CCC(=O)O)C(=O)O)cc3)c2c(=O)[nH]1 [PEMETREXED] |  |  |  |  | IC50 [14]: 5.7 µM |
| COc1cc(NCc2c[nH]c3nc(N)nc(O)c23)cc(OC)c1 |  |  |  | > 8 |  |
| COc1cc(NCc2c[nH]c3nc(N)[nH]c(=O)c23)cc(OC)c1 | 20 | > 20 |  |  |  |
| COc1ccc(OC)c(N(C)Cc2c[nH]c3nc(N)[nH]c(=O)c23)c1 | 56 | > 56 | 10.3 |  |  |
